Structures are written as SMILES.

Experimental findings from the Kinase Knowledgebase extract (Sharma et al. 2016) are described below.

Assay [1] has as its target CDK2 (UniProt P24941). The assay can be described thus: Enzyme Assay.
For assay [2], the target named is CDK2 (UniProt P24941). The assay is described as follows: Enzyme Assay. This is another data set of the same source.
In the next assay the target is ROCK2 (UniProt O75116). The assay can be described thus: Inhibition of ROCK2 Kinase Activity. The settings on record: concentration not given here.
Sequence of ROCK2 (O75116 whole entry, looked up): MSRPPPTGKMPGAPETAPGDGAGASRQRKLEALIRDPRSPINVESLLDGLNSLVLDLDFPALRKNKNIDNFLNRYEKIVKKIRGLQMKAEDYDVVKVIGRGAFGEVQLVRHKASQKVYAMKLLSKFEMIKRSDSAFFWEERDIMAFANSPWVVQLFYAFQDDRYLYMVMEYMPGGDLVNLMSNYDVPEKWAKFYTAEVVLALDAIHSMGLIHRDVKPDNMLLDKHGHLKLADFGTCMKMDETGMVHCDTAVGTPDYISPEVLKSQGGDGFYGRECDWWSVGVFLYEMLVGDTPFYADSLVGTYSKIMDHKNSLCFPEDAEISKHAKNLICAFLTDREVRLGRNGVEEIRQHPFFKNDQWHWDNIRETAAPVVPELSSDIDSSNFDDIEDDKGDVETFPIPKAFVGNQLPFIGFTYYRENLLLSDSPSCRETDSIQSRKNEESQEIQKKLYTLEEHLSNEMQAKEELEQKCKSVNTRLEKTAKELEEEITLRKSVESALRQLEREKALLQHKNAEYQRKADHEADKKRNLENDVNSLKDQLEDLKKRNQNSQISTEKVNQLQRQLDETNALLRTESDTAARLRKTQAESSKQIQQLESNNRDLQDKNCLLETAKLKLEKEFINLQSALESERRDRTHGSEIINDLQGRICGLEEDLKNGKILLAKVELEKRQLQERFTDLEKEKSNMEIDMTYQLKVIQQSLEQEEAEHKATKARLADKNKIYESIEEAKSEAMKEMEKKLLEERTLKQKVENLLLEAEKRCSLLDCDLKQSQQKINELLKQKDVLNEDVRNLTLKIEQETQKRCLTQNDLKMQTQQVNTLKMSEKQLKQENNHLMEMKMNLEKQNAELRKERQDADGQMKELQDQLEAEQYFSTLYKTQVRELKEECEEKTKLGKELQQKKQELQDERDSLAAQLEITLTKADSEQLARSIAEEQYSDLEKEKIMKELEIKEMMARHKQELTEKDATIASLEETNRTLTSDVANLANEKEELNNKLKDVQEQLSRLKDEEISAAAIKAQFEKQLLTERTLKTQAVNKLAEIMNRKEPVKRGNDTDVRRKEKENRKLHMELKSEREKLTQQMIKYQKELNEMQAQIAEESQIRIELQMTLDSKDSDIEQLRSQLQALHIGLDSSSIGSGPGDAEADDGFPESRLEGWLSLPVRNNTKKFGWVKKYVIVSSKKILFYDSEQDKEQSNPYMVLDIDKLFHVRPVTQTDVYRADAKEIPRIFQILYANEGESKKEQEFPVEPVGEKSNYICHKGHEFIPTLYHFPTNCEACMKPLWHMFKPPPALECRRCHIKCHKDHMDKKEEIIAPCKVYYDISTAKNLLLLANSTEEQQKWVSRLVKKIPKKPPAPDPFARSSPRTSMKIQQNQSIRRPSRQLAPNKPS
Another assay has as its target MAPK14 (UniProt Q16539). The assay is described as follows: Inhibition of MAPK14 Kinase Activity. The settings on record: concentration not given here.

Sequence of MAPK14 (Q16539 whole entry, looked up): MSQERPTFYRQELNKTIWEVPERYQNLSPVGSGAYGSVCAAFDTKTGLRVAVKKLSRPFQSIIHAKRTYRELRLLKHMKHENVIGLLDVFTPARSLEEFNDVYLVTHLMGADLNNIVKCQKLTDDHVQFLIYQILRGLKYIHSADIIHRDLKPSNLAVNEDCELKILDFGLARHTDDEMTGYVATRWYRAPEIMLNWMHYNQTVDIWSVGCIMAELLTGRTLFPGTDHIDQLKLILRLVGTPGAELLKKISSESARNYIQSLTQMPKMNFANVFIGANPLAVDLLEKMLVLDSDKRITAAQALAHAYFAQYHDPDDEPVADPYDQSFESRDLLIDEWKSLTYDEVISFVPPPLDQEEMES

`COc1ccc(Nc2nccc(-c3nccs3)n2)cn1`: the IC50 at CDK2 [1] was greater than 100 µM; against CDK2 [2] it was greater than 50 µM.
Consider `CCOC(=O)c1sc(-c2ccnc(Nc3ccc(Cl)cc3)n2)nc1O`, for which the IC50 is greater than 10 µM at CDK2 [1] and greater than 1 µM against CDK2 [2].
As to `Clc1ccc(Nc2nccc(-c3nccs3)n2)cn1`, the IC50 against CDK2 [1] is greater than 50 µM; on CDK2 [2], 11 µM. Also, the Ki on CDK2 [1] is greater than 50 µM; at CDK2 [2], 5.5 µM. Also, the results for the inhibition against ROCK2 and on MAPK14 were 13% and 16%, respectively.
Turning to `COc1ccc(Nc2nccc(-c3nc(C)c(C)s3)n2)cn1`, the concentration for half-maximal inhibition (IC50) is greater than 10 µM on CDK2 [1] and greater than 1 µM against CDK2 [2].
Taken in the same sequence, the figures for `Cc1nc(-c2ccnc(Nc3ccc(Cl)nc3)n2)sc1C` were greater than 10 µM and greater than 10 µM.
